{"source": "patent US12398107B2", "about": "“Fungicidal nitroanilino substituted pyrazoles” (FMC Corporation, priority 2018, dated 2025)", "format_in_all_cases": "in vivo", "key": {"Alternaria solani": {"system": "Alternaria solani", "assay": "Test F: tomato early blight, preventive spray on tomato seedlings", "conditions": "50 ppm, 100 = 100% disease control, 0 = no control", "procedure,_shortened": "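Compounds in acetone/water (50/50) with 250 ppm PEG400, dosed in ppm, sprayed to run-off on tomato seedlings; next day inoculated with A. solani spores. Held 48 h saturated at 27° C, then 3 days at 20° C; visual rating 0–100% disease control relative to controls.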"}, "Septoria tritici": {"system": "Septoria tritici", "assay": "Test A: wheat leaf blotch, preventive spray on wheat seedlings", "conditions": "50 ppm, 100 = 100% disease control, 0 = no control relative to controls", "procedure,_shortened": "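Compounds were suspended in acetone/water (50/50) with 250 ppm PEG400 and sprayed to run-off on wheat seedlings. The next day the seedlings were inoculated with Septoria tritici spores, held 48 h at 24 °C in saturated humidity, then 17 days at 20 °C. Disease control was rated 0–100 relative to controls.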"}, "[1]": {"system": "Blumeria graminis f. sp. tritici", "assay": "Test C: wheat powdery mildew, preventive spray on wheat seedlings", "conditions": "50 ppm, rated after 8 days, 100 = 100% disease control, 0 = no control", "procedure,_shortened": "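Compound dissolved in acetone (3% of final volume), then suspended in 50/50 acetone/water with 250 ppm PEG400 and sprayed to run-off on wheat seedlings. Inoculated next day with B. graminis f. sp. tritici spore dust, kept 8 days at 20° C; visual rating, 100 = full control, 0 = none, relative to controls.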"}, "Phakopsora pachyrhizi": {"system": "Phakopsora pachyrhizi", "assay": "Test D: Asian soybean rust, preventive spray on soybean seedlings", "conditions": "50 ppm, 100 = 100% disease control, 0 = no control", "procedure,_shortened": "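Soybean seedlings sprayed to run-off with compound suspension (ppm, in 50/50 acetone/water with 250 ppm PEG400), inoculated next day with P. pachyrhizi spores, held 24 h saturated at 22°C then 8 days at 22°C. Visual rating 0-100% disease control relative to controls.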"}, "[2]": {"system": "Puccinia recondita f. sp. tritici", "assay": "Test B: wheat leaf rust, preventive spray on wheat seedlings", "conditions": "50 ppm, 100 = 100% disease control, 0 = no control relative to controls", "procedure,_shortened": "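Compounds in acetone/water (50/50) with 250 ppm PEG400, sprayed to run-off on wheat seedlings at stated ppm; inoculated next day with P. recondita spores. Held 24 h saturated at 20° C., then 7 days in growth chamber at 20° C.; rating 0–100 = % disease control vs controls.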"}, "Botrytis cinerea": {"system": "Botrytis cinerea", "assay": "Test E: tomato Botrytis, preventive spray on tomato seedlings", "conditions": "50 ppm, 100 = 100% disease control, 0 = no control", "procedure,_shortened": "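Tomato seedlings sprayed to run-off with compound (ppm) in acetone/water with 250 ppm PEG400, then inoculated next day with B. cinerea spores. Held 48 h at 20 °C in saturated atmosphere, then 3 days at 24 °C. Visual rating 0–100% disease control relative to untreated controls.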"}}}
{"smiles": "Cc1nn(C)c(Nc2ccccc2[N+](=O)[O-])c1-c1c(F)cccc1Cl", "note": "[Compound 136]", "values": [{"measurement": "Test F disease control rating (tomato early blight)", "setting": "Alternaria solani", "result": 0, "unit": "%"}, {"measurement": "Test A disease control rating (wheat leaf blotch)", "setting": "Septoria tritici", "result": 100, "unit": "%"}, {"measurement": "Test C disease control rating (wheat powdery mildew)", "setting": "[1]", "result": 88, "unit": "%"}, {"measurement": "Test D disease control rating (Asian soybean rust)", "setting": "Phakopsora pachyrhizi", "result": 0, "unit": "%"}, {"measurement": "Test B disease control rating (wheat leaf rust)", "setting": "[2]", "result": 80, "unit": "%"}, {"measurement": "Test E disease control rating (tomato Botrytis)", "setting": "Botrytis cinerea", "result": 99, "unit": "%"}]}
